Measurements published in ChEMBL document CHEMBL1148573, “Design, synthesis, and binding affinities of potential positron emission tomography (PET) ligands for visualization of brain dopamine D3 receptors” (J Med Chem, 2006).

Columns and labels:
D(3) dopamine receptor = D(3) dopamine receptor (Homo sapiens, UniProt P35462); assay: biochemical
Description: Displacement of [3H]spiroperidol from cloned human dopamine receptor D3 expressed in CHO cells

D(2) dopamine receptor = D(2) dopamine receptor (Homo sapiens, UniProt P14416); assay: biochemical
Description: Displacement of [3H]spiroperidol from cloned human dopamine receptor D2(long) expressed in rat C6 glioma cells

[1] = Partition coefficient measured; format: physicochemical; details: octanol/water
[2] = Apparent permeability assessed by Caco-2 layer assay; format: ADME, cell-based; details: human
[3] = Distribution coefficient at pH 7.4; format: physicochemical; details: octanol/water

D(2) dopamine receptor, sequence (P14416 whole entry): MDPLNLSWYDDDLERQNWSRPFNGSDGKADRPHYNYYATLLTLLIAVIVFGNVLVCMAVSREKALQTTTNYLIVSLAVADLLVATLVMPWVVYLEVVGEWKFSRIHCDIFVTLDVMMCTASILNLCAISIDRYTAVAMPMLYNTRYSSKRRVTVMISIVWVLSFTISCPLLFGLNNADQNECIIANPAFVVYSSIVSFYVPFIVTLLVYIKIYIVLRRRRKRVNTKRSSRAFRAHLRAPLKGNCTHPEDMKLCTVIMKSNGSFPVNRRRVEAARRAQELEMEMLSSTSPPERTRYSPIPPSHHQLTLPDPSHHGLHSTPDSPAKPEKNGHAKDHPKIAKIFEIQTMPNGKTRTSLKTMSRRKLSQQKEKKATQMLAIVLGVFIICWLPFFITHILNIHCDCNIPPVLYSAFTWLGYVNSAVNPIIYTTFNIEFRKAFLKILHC
D(3) dopamine receptor, sequence (P35462 whole entry): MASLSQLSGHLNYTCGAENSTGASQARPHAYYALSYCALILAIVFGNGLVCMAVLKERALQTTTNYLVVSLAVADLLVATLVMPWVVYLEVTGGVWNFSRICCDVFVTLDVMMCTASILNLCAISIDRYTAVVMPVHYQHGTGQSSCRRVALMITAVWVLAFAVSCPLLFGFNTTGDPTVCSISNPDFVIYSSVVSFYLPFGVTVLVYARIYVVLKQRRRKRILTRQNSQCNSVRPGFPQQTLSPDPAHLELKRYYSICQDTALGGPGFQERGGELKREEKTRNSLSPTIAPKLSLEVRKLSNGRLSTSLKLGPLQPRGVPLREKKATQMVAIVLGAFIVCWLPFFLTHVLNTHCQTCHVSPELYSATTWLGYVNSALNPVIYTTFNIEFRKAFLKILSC

**Q.** Which results are given for COc1ccccc1N1CCN(CCCCNC(=O)c2cc3ccccc3oc2=O)CC1?
**A.** Ki (D(3) dopamine receptor): 60.1 nM; Ki (D(2) dopamine receptor): 146 nM

**Q.** Which logP [1] does the source give for COc1ccc2onc(N3CCN(CCCCNC(=O)c4ccc(N5CCOCC5)cc4)CC3)c2c1 here?
**A.** Its logP is 3.16.

**Q.** And the Papp [2]?
**A.** The Papp was 36.3 ×10⁻⁶ cm/s.

**Q.** What about the logD [3] of the same molecule?
**A.** Its logD is 2.96.

**Q.** What about the Ki (D(3) dopamine receptor) of the same molecule?
**A.** The Ki was 38 nM.

**Q.** What about the Ki (D(2) dopamine receptor) of the same molecule?
**A.** The Ki was over 750 nM.

**Q.** With COc1ccc2onc(N3CCN(CCCCNC(=O)c4cccc(-c5ncccn5)c4)CC3)c2c1 as the molecule, how does the Ki (D(3) dopamine receptor) read?
**A.** Its Ki is 1140 nM.

**Q.** And the Ki (D(2) dopamine receptor)?
**A.** Its Ki is over 1000 nM.

**Q.** With COc1ccc2onc(N3CCN(CCCCNC(=O)c4cc5cccc(OC)c5o4)CC3)c2c1 as the molecule, how does the Ki (D(3) dopamine receptor) read?
**A.** Its Ki is 98 nM.

**Q.** And the Ki (D(2) dopamine receptor)?
**A.** The Ki was over 750 nM.

**Q.** For COc1ccc2onc(N3CCN(CCCCNC(=O)c4ccc(-n5ccnc5)cc4)CC3)c2c1, which logP [1] is on record?
**A.** Its logP is 2.63.

**Q.** What about the Papp [2] of the same molecule?
**A.** The Papp was 6.56 ×10⁻⁶ cm/s.

**Q.** What about the logD [3] of the same molecule?
**A.** The logD was 2.42.

**Q.** What about the Ki (D(3) dopamine receptor) of the same molecule?
**A.** Its Ki is 22.6 nM.

**Q.** What about the Ki (D(2) dopamine receptor) of the same molecule?
**A.** Its Ki is over 750 nM.

**Q.** Which results are given for COc1ccc2onc(N3CCN(CCCCNC(=O)c4cccc(N5CCOCC5)c4)CC3)c2c1?
**A.** Ki (D(3) dopamine receptor): 1440 nM; Ki (D(2) dopamine receptor): > 1000 nM

**Q.** Which results are given for COc1ccccc1N1CCN(CCCCNC(=O)c2ccc3nccnc3c2)CC1?
**A.** Ki (D(3) dopamine receptor): 77.9 nM; Ki (D(2) dopamine receptor): 179 nM

**Q.** For COc1ccc2onc(N3CCN(CCCCNC(=O)c4ccc5nccnc5c4)CC3)c2c1, which Ki (D(3) dopamine receptor) is on record?
**A.** The Ki was 220 nM.

**Q.** What about the Ki (D(2) dopamine receptor) of the same molecule?
**A.** Its Ki is over 750 nM.

**Q.** Which logP [1] does the source give for COc1ccc2onc(N3CCN(CCCCNC(=O)c4cc(-c5ccco5)n[nH]4)CC3)c2c1 here?
**A.** Its logP is 2.98.

**Q.** What about the Papp [2] of the same molecule?
**A.** The Papp was 7.39 ×10⁻⁶ cm/s.

**Q.** And the logD [3]?
**A.** The logD was 2.43.

**Q.** What about the Ki (D(3) dopamine receptor) of the same molecule?
**A.** Its Ki is 21.4 nM.

**Q.** What about the Ki (D(2) dopamine receptor) of the same molecule?
**A.** Its Ki is over 750 nM.

**Q.** Which Ki (D(3) dopamine receptor) does the source give for COc1ccccc1N1CCN(CCCCNC(=O)c2cc(-c3ccco3)[nH]n2)CC1 here?
**A.** Its Ki is 19.3 nM.

**Q.** And the Ki (D(2) dopamine receptor)?
**A.** Its Ki is 130 nM.

**Q.** What does the source list for COc1ccc2onc(N3CCN(CCCCNC(=O)c4ccc5c(c4)OCO5)CC3)c2c1?
**A.** Ki (D(3) dopamine receptor): 118 nM; Ki (D(2) dopamine receptor): > 750 nM

**Q.** Which Ki (D(3) dopamine receptor) does the source give for COc1cccc2cc(C(=O)NCCCCN3CCN(c4nc5ccccc5[nH]4)CC3)oc12 here?
**A.** Its Ki is over 8500 nM.

**Q.** And the Ki (D(2) dopamine receptor)?
**A.** Its Ki is over 750 nM.

**Q.** For COc1ccc2ccnc(N3CCN(CCCCNC(=O)c4cc5cccc(OC)c5o4)CC3)c2c1, which Ki (D(3) dopamine receptor) is on record?
**A.** The Ki was 102 nM.

**Q.** What does the source list for COc1ccccc1N1CCN(CCCCNC(=O)c2ccc(-n3ccnc3)cc2)CC1?
**A.** Ki (D(3) dopamine receptor): 4.79 nM; Ki (D(2) dopamine receptor): 27.2 nM

**Q.** Which results are given for COc1ccc2onc(N3CCN(CCCCNC(=O)c4cc5ccccc5oc4=O)CC3)c2c1?
**A.** Ki (D(3) dopamine receptor): > 2700 nM; Ki (D(2) dopamine receptor): > 750 nM

**Q.** What does the source list for COc1cccc2cc(C(=O)NCCCCN3CCN(c4cccc5nccnc45)CC3)oc12?
**A.** Ki (D(3) dopamine receptor): 262 nM; Ki (D(2) dopamine receptor): 1250 nM

**Q.** Which Ki (D(3) dopamine receptor) does the source give for COc1ccccc1N1CCN(CCCCNC(=O)c2ccc3c(c2)OCO3)CC1 here?
**A.** The Ki was 14.7 nM.

**Q.** And the Ki (D(2) dopamine receptor)?
**A.** The Ki was 86.2 nM.

**Q.** With COc1ccccc1N1CCN(CCCCNC(=O)c2cc3cccc(OC)c3o2)CC1 as the molecule, how does the Ki (D(3) dopamine receptor) read?
**A.** The Ki was 25.5 nM.

**Q.** And the Ki (D(2) dopamine receptor)?
**A.** The Ki was 369 nM.

**Q.** With COc1cccc2cc(C(=O)NCCCCN3CCN(c4[nH]nc5ccccc45)CC3)oc12 as the molecule, how does the Ki (D(3) dopamine receptor) read?
**A.** The Ki was 127 nM.

**Q.** What about the Ki (D(2) dopamine receptor) of the same molecule?
**A.** The Ki was 56.6 nM.

**Q.** Which Ki (D(3) dopamine receptor) does the source give for COc1ccc2oc(N3CCN(CCCCNC(=O)c4cc5cccc(OC)c5o4)CC3)nc2c1 here?
**A.** Its Ki is over 8500 nM.

**Q.** And the Ki (D(2) dopamine receptor)?
**A.** The Ki was over 750 nM.

**Q.** Which Ki (D(3) dopamine receptor) does the source give for COc1ccccc1N1CCN(CCCCNC(=O)c2ccc(N3CCOCC3)cc2)CC1 here?
**A.** The Ki was 23.9 nM.

**Q.** And the Ki (D(2) dopamine receptor)?
**A.** The Ki was 141 nM.

**Q.** Which Ki (D(3) dopamine receptor) does the source give for COc1ccc2onc(N3CCN(CCCCNC(=O)c4ccc5nonc5c4)CC3)c2c1 here?
**A.** Its Ki is 85 nM.

**Q.** What about the Ki (D(2) dopamine receptor) of the same molecule?
**A.** The Ki was over 750 nM.

**Q.** Which results are given for COc1ccccc1N1CCN(CCCCNC(=O)c2ccc3nonc3c2)CC1?
**A.** Ki (D(3) dopamine receptor): 58.5 nM; Ki (D(2) dopamine receptor): > 1000 nM

**Q.** For COc1ccc2onc(N3CCN(CCCCNC(=O)c4cccc(-c5noc(C)n5)c4)CC3)c2c1, which Ki (D(3) dopamine receptor) is on record?
**A.** The Ki was 1280 nM.

**Q.** And the Ki (D(2) dopamine receptor)?
**A.** The Ki was over 1000 nM.

**Q.** With COc1ccc2onc(N3CCN(CCCCNC(=O)c4cccc(-n5ccnc5)c4)CC3)c2c1 as the molecule, how does the Ki (D(3) dopamine receptor) read?
**A.** The Ki was 5540 nM.

**Q.** And the Ki (D(2) dopamine receptor)?
**A.** The Ki was over 1000 nM.
